These results are taken from US12492188B2, “1H-benzo[D]imidazole derivatives as TLR9 inhibitors for the treatment of fibrosis” (BRISTOL-MYERS SQUIBB COMPANY, priority 2020, dated 2025).

What all share (type): cell-based
Experiment [1] has as its target T1, human TLR8 (Homo sapiens, UniProt Q9NR97).
T1 construct: host or cells: HEK-Blue cells (HEK293-derived reporter line)
T1 sequence (Q9NR97 27-1041): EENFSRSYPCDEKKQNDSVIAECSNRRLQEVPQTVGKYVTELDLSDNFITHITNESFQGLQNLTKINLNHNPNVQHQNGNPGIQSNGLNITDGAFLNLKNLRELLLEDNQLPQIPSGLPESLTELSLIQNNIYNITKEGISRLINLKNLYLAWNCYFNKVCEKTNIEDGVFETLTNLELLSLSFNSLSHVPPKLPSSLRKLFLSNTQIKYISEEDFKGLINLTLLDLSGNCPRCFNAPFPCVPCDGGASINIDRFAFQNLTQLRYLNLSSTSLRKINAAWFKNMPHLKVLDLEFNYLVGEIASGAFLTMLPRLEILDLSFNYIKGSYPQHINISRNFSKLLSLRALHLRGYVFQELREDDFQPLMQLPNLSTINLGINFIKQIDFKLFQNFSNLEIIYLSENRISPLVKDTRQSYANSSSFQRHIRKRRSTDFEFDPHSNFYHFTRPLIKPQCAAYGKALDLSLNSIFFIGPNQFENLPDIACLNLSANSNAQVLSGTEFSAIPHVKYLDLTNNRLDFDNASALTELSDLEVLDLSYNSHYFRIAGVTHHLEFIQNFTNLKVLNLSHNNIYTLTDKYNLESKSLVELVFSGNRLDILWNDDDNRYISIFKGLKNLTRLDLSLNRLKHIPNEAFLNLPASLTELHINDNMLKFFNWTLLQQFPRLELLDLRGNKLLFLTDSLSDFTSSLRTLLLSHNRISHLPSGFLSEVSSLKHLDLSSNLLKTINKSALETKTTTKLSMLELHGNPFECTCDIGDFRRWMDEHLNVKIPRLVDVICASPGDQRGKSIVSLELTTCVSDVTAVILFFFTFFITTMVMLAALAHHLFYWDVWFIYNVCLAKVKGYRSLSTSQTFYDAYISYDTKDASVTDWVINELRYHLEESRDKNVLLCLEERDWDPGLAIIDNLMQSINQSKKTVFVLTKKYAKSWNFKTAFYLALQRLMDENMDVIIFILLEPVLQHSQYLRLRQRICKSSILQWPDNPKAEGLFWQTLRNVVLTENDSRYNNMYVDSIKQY
Description: TLR8 inhibition reporter assay (HEK-Blue cells, secreted embryonic alkaline phosphatase reporter). Particulars: HEK-Blue cells overexpressing human TLR8, stimulated with R848 15.9 μM; read-out: TLR 8 IC50. In outline:
(§1)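 Inhibitors are tested in dose response (0.05 nM–50 μM) on HEK-Blue reporter cells expressing human TLR7, TLR8 or TLR9. After 30 min at room temperature, each line is stimulated with its own agonist (gardiquimod 7.5 μM, R848 15.9 μM or ODN2006 5 nM, final) and SEAP is measured 22 h later.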
A general note: A reporter such as luciferase makes a cellular process visible.

Experiment [2] addresses T2, human TLR9 (Homo sapiens, UniProt Q9NR96).
T2 construct: host or cells: HEK-Blue cells (HEK293-derived reporter line)
T2 sequence (Q9NR96 26-1032): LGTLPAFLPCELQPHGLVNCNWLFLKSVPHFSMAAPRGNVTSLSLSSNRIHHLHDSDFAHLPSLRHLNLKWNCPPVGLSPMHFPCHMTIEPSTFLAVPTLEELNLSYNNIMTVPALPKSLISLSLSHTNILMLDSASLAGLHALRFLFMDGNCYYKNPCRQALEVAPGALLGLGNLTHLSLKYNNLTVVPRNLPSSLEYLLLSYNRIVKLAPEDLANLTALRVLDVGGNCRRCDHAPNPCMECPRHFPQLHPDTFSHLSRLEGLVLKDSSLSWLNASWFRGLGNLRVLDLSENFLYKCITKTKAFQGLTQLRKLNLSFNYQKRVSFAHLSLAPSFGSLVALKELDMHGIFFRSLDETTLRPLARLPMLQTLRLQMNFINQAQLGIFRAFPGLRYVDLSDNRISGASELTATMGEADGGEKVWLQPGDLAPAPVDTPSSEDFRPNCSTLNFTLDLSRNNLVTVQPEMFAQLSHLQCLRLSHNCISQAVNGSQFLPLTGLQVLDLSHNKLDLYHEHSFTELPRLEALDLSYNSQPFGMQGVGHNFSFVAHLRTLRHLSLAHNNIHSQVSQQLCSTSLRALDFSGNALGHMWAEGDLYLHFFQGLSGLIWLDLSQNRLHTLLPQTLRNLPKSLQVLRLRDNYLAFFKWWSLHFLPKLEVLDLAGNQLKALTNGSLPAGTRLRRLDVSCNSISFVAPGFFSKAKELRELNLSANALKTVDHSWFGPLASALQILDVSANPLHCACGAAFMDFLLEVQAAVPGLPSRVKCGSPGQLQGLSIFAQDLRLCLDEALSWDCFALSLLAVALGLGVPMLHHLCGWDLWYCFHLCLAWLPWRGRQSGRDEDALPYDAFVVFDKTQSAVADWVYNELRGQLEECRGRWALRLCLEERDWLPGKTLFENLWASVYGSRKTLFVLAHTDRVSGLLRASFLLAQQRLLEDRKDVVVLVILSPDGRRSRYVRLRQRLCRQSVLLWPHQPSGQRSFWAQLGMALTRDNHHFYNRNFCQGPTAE
Description: TLR9 inhibition reporter assay (HEK-Blue cells, secreted embryonic alkaline phosphatase reporter). The gist of the method:
as §1

For experiment [3], the target named is T3, human TLR7 (Homo sapiens, UniProt Q9NYK1).
T3 construct: host or cells: HEK-Blue cells (HEK293-derived reporter line)
T3 sequence (Q9NYK1 27-1049): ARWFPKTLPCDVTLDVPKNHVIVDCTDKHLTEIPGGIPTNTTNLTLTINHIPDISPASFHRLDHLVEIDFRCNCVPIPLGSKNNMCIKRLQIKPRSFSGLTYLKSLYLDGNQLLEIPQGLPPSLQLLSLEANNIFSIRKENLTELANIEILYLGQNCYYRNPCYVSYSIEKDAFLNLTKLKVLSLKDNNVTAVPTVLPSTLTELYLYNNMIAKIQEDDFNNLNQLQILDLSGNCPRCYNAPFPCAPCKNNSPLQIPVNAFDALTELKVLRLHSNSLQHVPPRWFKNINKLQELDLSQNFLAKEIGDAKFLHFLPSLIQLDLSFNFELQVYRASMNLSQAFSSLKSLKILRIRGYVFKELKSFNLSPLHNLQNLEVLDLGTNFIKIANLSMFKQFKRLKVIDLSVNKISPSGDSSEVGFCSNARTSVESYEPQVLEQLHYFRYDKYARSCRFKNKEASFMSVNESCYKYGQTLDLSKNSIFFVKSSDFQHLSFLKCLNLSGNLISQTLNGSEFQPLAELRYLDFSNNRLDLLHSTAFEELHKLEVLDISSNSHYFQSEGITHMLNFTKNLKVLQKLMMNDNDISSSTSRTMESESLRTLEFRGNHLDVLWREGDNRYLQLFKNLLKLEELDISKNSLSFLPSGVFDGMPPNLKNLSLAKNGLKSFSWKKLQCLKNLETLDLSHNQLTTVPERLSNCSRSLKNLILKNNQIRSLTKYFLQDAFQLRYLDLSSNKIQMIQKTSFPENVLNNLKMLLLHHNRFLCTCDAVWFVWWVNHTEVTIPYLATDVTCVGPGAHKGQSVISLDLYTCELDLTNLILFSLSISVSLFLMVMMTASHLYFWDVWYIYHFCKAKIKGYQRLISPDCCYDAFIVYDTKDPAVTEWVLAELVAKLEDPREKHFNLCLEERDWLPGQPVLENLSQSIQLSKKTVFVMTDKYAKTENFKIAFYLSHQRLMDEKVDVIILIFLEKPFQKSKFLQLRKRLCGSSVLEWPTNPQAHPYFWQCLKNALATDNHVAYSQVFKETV
Description: TLR7 inhibition reporter assay (HEK-Blue cells, secreted embryonic alkaline phosphatase reporter). The settings on record: HEK-Blue cells overexpressing human TLR7, stimulated with gardiquimod 7.5 μM; read-out: TLR 7 IC50. In outline:
as §1

Where [4] appears, read: HEK-Blue cells overexpressing human TLR9, stimulated with ODN2006 5 nM, read-out: TLR 9 IC50.

Read-outs that look alike come from different tables or passages of the source.

In general, IC50 refers to the point on the concentration scale where inhibition reaches its midpoint.

As to `CS(=O)(=O)c1ccc(-c2nc3ccc(C4CCN(C5CCN(C6COC6)CC5)CC4)c(F)c3[nH]2)cc1` [Example 181, 7-fluoro-2-(4-(methylsulfonyl)phenyl)-6-(1′-(oxetan-3-yl)-[1,4′-bipiperidin]-4-yl)-1H-benzo[d]imidazole], the IC50 was greater than 50000 nM in experiment [1], 640 nM in experiment [2], 641 nM in experiment [2] (setting [4]) and greater than 50000 nM in experiment [3].

Consider `CS(=O)(=O)c1ccc(-c2nc3ccc(C4CCN(C5CCN(C6CCOCC6)CC5)CC4)c(F)c3[nH]2)cc1` [Example 182, 7-fluoro-2-(4-(methylsulfonyl)phenyl)-6-(1′-(tetrahydro-2H-pyran-4-yl)-[1,4′-bipiperidin]-4-yl)-1H-benzo[d]imidazole], for which the IC50 was greater than 50000 nM in experiment [1], 320 nM in experiment [2], 316 nM in experiment [2] (setting [4]) and greater than 50000 nM in experiment [3].

Regarding `CS(=O)(=O)c1ccc(-c2nc3ccc(C4CCN(C5CCN(CC6COC6)CC5)CC4)c(F)c3[nH]2)cc1` [Example 183, 7-fluoro-2-(4-(methylsulfonyl)phenyl)-6-(1′-(oxetan-3-ylmethyl)-[1,4′-bipiperidin]-4-yl)-1H-benzo[d]imidazole], the IC50 in experiment [1] is greater than 50000 nM; in experiment [2], 110 nM; in experiment [2] (setting [4]), 110 nM; in experiment [3], greater than 50000 nM.

For `CC(C)CN1CCC(N2CCC(c3ccc4c(nc(-c5ccc(S(C)(=O)=O)cc5)n4C)c3F)CC2)CC1` [Example 184, 4-fluoro-5-(1′-isobutyl-[1,4′-bipiperidin]-4-yl)-1-methyl-2-(4-(methylsulfonyl)phenyl)-1H-benzo[d]imidazole], the IC50 is greater than 50000 nM in experiment [1], 850 nM in experiment [2], 850 nM in experiment [2] (setting [4]) and greater than 50000 nM in experiment [3].

As for `Cn1c(-c2ccc(S(C)(=O)=O)cc2)nc2c(F)c(C3CCN(C4CCN(C5CC5)CC4)CC3)ccc21` [Example 185, 5-(1′-cyclopropyl-[1,4′-bipiperidin]-4-yl)-4-fluoro-1-methyl-2-(4-(methylsulfonyl)phenyl)-1H-benzo[d]imidazole], the IC50 in experiment [1] is greater than 50000 nM; in experiment [2], 700 nM; in experiment [2] (setting [4]), 697 nM; in experiment [3], greater than 50000 nM.

`Cn1c(-c2ccc(S(C)(=O)=O)cc2)nc2c(F)c(C3CCN(C4CCN(C5COC5)CC4)CC3)ccc21` [Example 186, 4-fluoro-1-methyl-2-(4-(methylsulfonyl)phenyl)-5-(1′-(oxetan-3-yl)-[1,4′-bipiperidin]-4-yl)-1H-benzo[d]imidazole]: the IC50 is greater than 50000 nM in experiment [1], 7300 nM in experiment [2], 7300 nM in experiment [2] (setting [4]) and greater than 50000 nM in experiment [3].

On to `Cn1c(-c2ccc(S(C)(=O)=O)cc2)nc2c(F)c(C3CCN(C4CCN(C5CCOCC5)CC4)CC3)ccc21` [Example 187, 4-fluoro-1-methyl-2-(4-(methylsulfonyl)phenyl)-5-(1′-(tetrahydro-2H-pyran-4-yl)-[1,4′-bipiperidin]-4-yl)-1H-benzo[d]imidazole], for which the IC50 in experiment [1] is greater than 50000 nM; in experiment [2] it was 520 nM; in experiment [2] (setting [4]) it was 523 nM; in experiment [3], greater than 50000 nM.

Turning to `COCCN1CCC(N2CCC(c3ccc4c(nc(-c5ccc(S(C)(=O)=O)cc5)n4C)c3F)CC2)CC1` [Example 188, 4-fluoro-5-(1′-(2-methoxyethyl)-[1,4′-bipiperidin]-4-yl)-1-methyl-2-(4-(methylsulfonyl)phenyl)-1H-benzo[d]imidazole], the IC50 was greater than 50000 nM in experiment [1], 440 nM in experiment [2], 441 nM in experiment [2] (setting [4]) and greater than 50000 nM in experiment [3].

Regarding `Cn1c(-c2ccc(S(C)(=O)=O)cc2)nc2c(F)c(C3CCN(C4CC5CCC(C4)N5C4COC4)CC3)ccc21` (stereo not shown) [Example 195, 4-fluoro-1-methyl-2-(4-(methylsulfonyl)phenyl)-5-(1-(8-(oxetan-3-yl)-8-azabicyclo[3.2.1]octan-3-yl)piperidin-4-yl)-1H-benzo[d]imidazole], the IC50 is greater than 50000 nM in experiment [1], 490 nM in experiment [2], 490 nM in experiment [2] (setting [4]) and greater than 50000 nM in experiment [3].

On to `Cn1c(-c2ccc(S(C)(=O)=O)cc2)nc2c(F)c(C3CCN(C4CC5CCC(C4)N5C4COC4)CC3)ccc21` (stereo not shown) [Example 196, 4-fluoro-1-methyl-2-(4-(methylsulfonyl)phenyl)-5-(1-(8-(oxetan-3-yl)-8-azabicyclo[3.2.1]octan-3-yl)piperidin-4-yl)-1H-benzo[d]imidazole], for which the IC50 in experiment [1] is greater than 50000 nM; in experiment [2] it was 580 nM; in experiment [2] (setting [4]), 578 nM; in experiment [3], greater than 50000 nM.
